Experimental findings from publication PMC6225232, “Design, Synthesis and Biological Evaluation of Ligustrazine-Flavonoid Derivatives as Potential Anti-Tumor Agents” (Molecules : A Journal of Synthetic Chemistry and Natural …, 2018) are described below.

What all share (format): cell-based, human
In assay [1] the test system is HepG-2. Nature of the assay: MTT cytotoxicity assay, HepG-2. On the procedure:
(§1) Five kinds of tumor cell lines and one normal endothelial cell were routinely cultured respectively in RPMI 1640 medium supplemented with 10% (V/V) FBS and 1% (V/V) penicillin-streptomycin, incubated at 37 °C in a 5% CO2 containing incubator. The five tumor cell lines were plated onto 96-well sterile plates in 100 μL/well of medium at a density of 3.5 × 10^3 cells per well and incubated at 37 °C with 5% CO2 for 24 h. Then luteolin, baicalein, apigenin, chrysin, quercetin, fisetin, genistein, daidzein, naringenin, DDP and compounds 10–25 were added at various concentrations (5, 10, 20, 40, 50 μΜ). Each plate contained control group, blank group, drug group and positive group (DDP). After 72 h, 20 μL MTT in phosphate buffered saline (PBS, 5 mg/mL) was added to each well and the plates were incubated at 37 °C for 4 h, then removing the liquid and adding dimethyl sulfoxide (DMSO, 100 μL) to dissolve the MTT formazan. The optical density (OD) for each well was measured on a BIORAD 550 spectrophotometer plate reader (Bio-Gene Technology Ltd., Guangzhou, China) at a wavelength of 490 nm. All tests were carried out three times in parallel.

Assay [2] concerns Bel-7402. Put plainly: MTT cytotoxicity assay, Bel-7402. The protocol:
as §1

In assay [3] the test system is HT-29. Put plainly: MTT cytotoxicity assay, HT-29. On the procedure:
as §1

Assay [4] has as its system MCF-7. Nature of the assay: MTT cytotoxicity assay, MCF-7. On the procedure:
as §1

Assay [5] concerns HeLa. Nature of the assay: MTT cytotoxicity assay, HeLa. As to conditions: 72 h. On the procedure:
as §1

Assay [6] concerns HUVEC-12. Put plainly: MTT cytotoxicity assay using HUVEC-12 cell. As to conditions: for Proliferation Rate (%) 2.5 μM / Proliferation Rate (%) 5 μM / Proliferation Rate (%) 10 μM / Proliferation Rate (%) 20 μM / Proliferation Rate (%) 40 μM: HUVEC-12, 24 h, negative = inhibition; for IC50: MTT, 24 h. The protocol:
Five kinds of tumor cell lines and one normal endothelial cell were routinely cultured respectively in RPMI 1640 medium supplemented with 10% (V/V) FBS and 1% (V/V) penicillin-streptomycin, incubated at 37 °C in a 5% CO2 containing incubator.
The HUVEC-12 cell were seeded in 96-well plates (6.0 × 10^3 cells/ well), and incubated at 37 °C in a 5% CO2 containing incubator. After 24 h, the medium was replaced with fresh medium containing the compounds to be tested. Compounds 14, 19 and DDP were added in final concentrations ranging from 2.5 to 40 μM. Each plate contained control group, blank group and drug group. After 24 h, 20 μL MTT was added to each well and the plates were incubated at 37 °C for 4 h, then removing the liquid and adding dimethyl sulfoxide (DMSO) (100 μL) to dissolve the MTT formazan. The optical density (OD) for each well was measured on a BIORAD 550 spectrophotometer plate reader at a wavelength of 490 nm. All tests were carried out three times in parallel. The proliferation inhibition rates of tumor cells were calculated by {1 − [OD490 (Drug group) − OD490 (Blank group)]/[OD490 (Control group) − OD490 (Blank group)]} × 100%.

Take `N.N.[Cl][Pt][Cl]` [DDP, reference compound]: in assay [1] (72 h), inhibition was half-maximal at 4.14 ± 0.16 µM (IC50). This molecule also displayed an IC50 in assay [2] (72 h) of 6.73 ± 0.37 µM. Further, in assay [3] (72 h), the IC50 came out at 5.83 ± 0.59 µM. Moreover, the concentration for half-maximal inhibition (IC50) in assay [4] (72 h) came out at 6.75 ± 0.57 µM. Also, in assay [5], half-maximal inhibition (IC50) was put at 4.76 ± 0.41 µM. In addition, in assay [6], the “Proliferation Rate (%) 2.5 μM” value was −23.93 ± 0.75%, the “Proliferation Rate (%) 5 μM” value was −31.38 ± 1.46%, the “Proliferation Rate (%) 10 μM” value is listed as −58.24 ± 0.82% and the “Proliferation Rate (%) 20 μM” value was −66.58 ± 1.75%. Also, in assay [6], the “Proliferation Rate (%) 40 μM” value is listed as −82.69 ± 2.19% and half-maximal inhibition (IC50) was put at 9.11 ± 0.54 µM.

As to `O=c1c(O)c(-c2ccc(O)c(O)c2)oc2cc(O)ccc12` [Fisetin], the IC50 was found to be 17.4 ± 1.04 µM in assay [1] (Homo sapiens, HepG2, 72 h); 25.5 ± 1.54 µM in assay [2] (Homo sapiens, Bel-7402, 72 h); 23.9 ± 0.81 µM in assay [3] (Homo sapiens, HT-29, 72 h); 38.1 ± 1.83 µM in assay [4] (Homo sapiens, MCF7, 72 h); 20.9 ± 1.65 µM in assay [5] (Homo sapiens).

As for `O=c1c(O)c(-c2ccc(O)c(O)c2)oc2cc(O)cc(O)c12` [Quercetin], the IC50 in assay [1] (Homo sapiens, HepG2, 72 h) was 13.6 ± 0.73 µM; in assay [2] (Homo sapiens, Bel-7402, 72 h) it was 30.4 ± 2.51 µM; in assay [3] (Homo sapiens, HT-29, 72 h), 27 ± 0.47 µM; in assay [4] (Homo sapiens, MCF7, 72 h), above 40 µM; in assay [5] (Homo sapiens), 20.8 ± 4.04 µM.

Take `Cc1nc(C)c(COc2cc(O)c3c(=O)cc(-c4ccccc4)oc3c2)nc1C` [Compound 10, 5-Hydroxy-2-phenyl-7-((3,5,6-trimethylpyrazin-2-yl)methoxy)-4H-chromen-4-one]: the IC50 in assay [1] (Homo sapiens, HepG2, 72 h) was above 40 µM; in assay [2] (Homo sapiens, Bel-7402, 72 h) it was above 40 µM; in assay [3] (Homo sapiens, HT-29, 72 h) it was above 40 µM; in assay [4] (Homo sapiens, MCF7, 72 h), above 40 µM; in assay [5] (Homo sapiens) it was 26.7 ± 0.34 µM.

For `O=c1c(-c2ccc(O)cc2)coc2cc(O)ccc12` [Daidzein], the IC50 was 21.8 ± 1.53 µM in assay [1] (Homo sapiens, HepG2, 72 h); above 40 µM in assay [2] (Homo sapiens, Bel-7402, 72 h); above 40 µM in assay [3] (Homo sapiens, HT-29, 72 h); 36.8 ± 1.48 µM in assay [4] (Homo sapiens, MCF7, 72 h); above 40 µM in assay [5] (Homo sapiens).

In the case of `Cc1nc(C)c(COc2ccc(-c3coc4cc(OCc5nc(C)c(C)nc5C)ccc4c3=O)cc2)nc1C` [Compound 20, 7-((3,5,6-Trimethylpyrazin-2-yl)methoxy)-3-(4-((3,5,6-trimethylpyrazin-2-yl)methoxy)phenyl)-4H-chromen-4-one], the IC50 in assay [1] (Homo sapiens, HepG2, 72 h) was above 40 µM; in assay [2] (Homo sapiens, Bel-7402, 72 h) it was 25.2 ± 1.72 µM; in assay [3] (Homo sapiens, HT-29, 72 h), 10.9 ± 2.3 µM; in assay [4] (Homo sapiens, MCF7, 72 h) it was above 40 µM; in assay [5] (Homo sapiens), 16.5 ± 1.79 µM.

Turning to `O=c1cc(-c2ccc(O)cc2)oc2cc(O)cc(O)c12` [Apigenin], the IC50 in assay [1] (Homo sapiens, HepG2, 72 h) was determined as 16.1 ± 1.52 µM; in assay [2] (Homo sapiens, Bel-7402, 72 h) it was 28.2 ± 0.38 µM; in assay [3] (Homo sapiens, HT-29, 72 h) it was 23.4 ± 1.89 µM; in assay [4] (Homo sapiens, MCF7, 72 h), 29.7 ± 1.43 µM; in assay [5] (Homo sapiens) it was 30.6 ± 0.71 µM.

With `O=c1cc(-c2ccccc2)oc2cc(O)c(O)c(O)c12` [Baicalein], the IC50 came out at 20.4 ± 2.07 µM in assay [1] (Homo sapiens, HepG2, 72 h); 21.6 ± 3.68 µM in assay [2] (Homo sapiens, Bel-7402, 72 h); 19.2 ± 2.72 µM in assay [3] (Homo sapiens, HT-29, 72 h); 37.9 ± 1.52 µM in assay [4] (Homo sapiens, MCF7, 72 h); 22.8 ± 3.54 µM in assay [5] (Homo sapiens).

With `O=c1cc(-c2ccc(O)c(O)c2)oc2cc(O)cc(O)c12` [Luteolin], the IC50 came to 11.8 ± 0.44 µM in assay [1] (Homo sapiens, HepG2, 72 h); 14.5 ± 0.68 µM in assay [2] (Homo sapiens, Bel-7402, 72 h); 19.2 ± 1.17 µM in assay [3] (Homo sapiens, HT-29, 72 h); 17 ± 0.31 µM in assay [4] (Homo sapiens, MCF7, 72 h); 21.3 ± 1.12 µM in assay [5] (Homo sapiens).

Regarding `O=c1c(-c2ccc(O)cc2)coc2cc(O)cc(O)c12` [Genistein], the concentration for half-maximal inhibition (IC50) in assay [1] (Homo sapiens, HepG2, 72 h) is 19.8 ± 1.31 µM; in assay [2] (Homo sapiens, Bel-7402, 72 h) it was 34.7 ± 0.63 µM; in assay [3] (Homo sapiens, HT-29, 72 h) it was 31.13 ± 0.26 µM; in assay [4] (Homo sapiens, MCF7, 72 h), 35.6 ± 1.38 µM; in assay [5] (Homo sapiens) it was 34.6 ± 2.52 µM.

In the case of `Cc1nc(C)c(COc2ccc(-c3coc4cc(OCc5nc(C)c(C)nc5C)cc(O)c4c3=O)cc2)nc1C` [Compound 17, 5-Hydroxy-7-((3,5,6-trimethylpyrazin-2-yl)methoxy)-3-(4-((3,5,6-trimethylpyrazin-2-yl)methoxy)-phenyl)-4H-chromen-4-one], the IC50 in assay [1] (Homo sapiens, HepG2, 72 h) was above 40 µM; in assay [2] (Homo sapiens, Bel-7402, 72 h), above 40 µM; in assay [3] (Homo sapiens, HT-29, 72 h), 10.7 ± 1.35 µM; in assay [4] (Homo sapiens, MCF7, 72 h), above 40 µM; in assay [5] (Homo sapiens) it was above 40 µM.

For the molecule `Cc1nc(C)c(COc2ccc(-c3coc4cc(O)ccc4c3=O)cc2)nc1C` [Compound 19, 7-Hydroxy-3-(4-((3,5,6-trimethylpyrazin-2-yl)methoxy)phenyl)-4H-chromen-4-one], the IC50 in assay [1] (Homo sapiens, HepG2, 72 h) was 14.5 ± 0.48 µM; in assay [2] (Homo sapiens, Bel-7402, 72 h), 28.9 ± 0.49 µM; in assay [3] (Homo sapiens, HT-29, 72 h), 11.7 ± 1.29 µM; in assay [4] (Homo sapiens, MCF7, 72 h) it was 10.4 ± 1.23 µM; in assay [5] (Homo sapiens), 14.3 ± 1.17 µM; in assay [6] (Homo sapiens), above 40 µM. For the same molecule, in assay [6], the “Proliferation Rate (%) 2.5 μM” value is −8.75 ± 0.38%. Moreover, in assay [6], the “Proliferation Rate (%) 5 μM” value is on record as −19.35 ± 0.35%. In addition, the “Proliferation Rate (%) 10 μM” value in assay [6] is listed as −19.49 ± 2.17%. In assay [6], the “Proliferation Rate (%) 20 μM” value is on record as −24.22 ± 3.19%. In addition, in assay [6], the “Proliferation Rate (%) 40 μM” value is given as −25.07 ± 1.02%.

As to `Cc1nc(C)c(COc2ccc(/C=C/C(=O)c3c(OCc4nc(C)c(C)nc4C)cc(OCc4nc(C)c(C)nc4C)cc3OCc3nc(C)c(C)nc3C)cc2)nc1C` [Compound 16, (E)-3-(4-((3,5,6-Trimethylpyrazin-2-yl)methoxy)phenyl)-1-(2,4,6-tris((3,5,6-trimethylpyrazin-2-yl)-methoxy)phenyl)prop-2-en-1-one], the IC50 was 20.6 ± 1.39 µM in assay [1] (Homo sapiens, HepG2, 72 h); above 40 µM in assay [2] (Homo sapiens, Bel-7402, 72 h); 34.4 ± 2.32 µM in assay [3] (Homo sapiens, HT-29, 72 h); 16.5 ± 0.45 µM in assay [4] (Homo sapiens, MCF7, 72 h); 30.5 ± 2.62 µM in assay [5] (Homo sapiens).

Turning to `O=c1cc(-c2ccccc2)oc2cc(O)cc(O)c12` [Chrysin], the IC50 in assay [1] (Homo sapiens, HepG2, 72 h) is 15.6 ± 0.3 µM; in assay [2] (Homo sapiens, Bel-7402, 72 h), 35 ± 1.46 µM; in assay [3] (Homo sapiens, HT-29, 72 h) it was 30.3 ± 1.96 µM; in assay [4] (Homo sapiens, MCF7, 72 h), 32.1 ± 2.78 µM; in assay [5] (Homo sapiens), above 40 µM.

With `Cc1nc(C)c(COc2cc3oc(-c4ccccc4)cc(=O)c3c(OCc3nc(C)c(C)nc3C)c2OCc2nc(C)c(C)nc2C)nc1C` [Compound 13, 2-Phenyl-5,6,7-tris((3,5,6-trimethylpyrazin-2-yl)methoxy)-4H-chromen-4-one], the IC50 in assay [1] (Homo sapiens, HepG2, 72 h) is 13.4 ± 2.5 µM; in assay [2] (Homo sapiens, Bel-7402, 72 h) it was 26.13 ± 0.11 µM; in assay [3] (Homo sapiens, HT-29, 72 h) it was 22.4 ± 0.35 µM; in assay [4] (Homo sapiens, MCF7, 72 h), above 40 µM; in assay [5] (Homo sapiens) it was 17.3 ± 1.07 µM.
